Entries after “also recorded” stand apart in the source; their conditions may differ.
Assays:
[1] = system: prostaglandin D2 generation following 48/80-induced mast cell degranulation; test: In vivo mast cell activation: compound 48/80 challenge, peritoneal lavage PGD2 by LC/MS/MS; parameters: species or system mouse; details: normal C57Bl6/N mice, oral 0.01-1.0 mg/kg ~1 hour prior to 48/80 (i.p.), lavage 7 minutes afterwards
Method: In Vivo Mast Cell Activation
Mice were randomized by body weight into 8 groups (n=8): Vehicle (0.5% HPML with 0.1% Tween80)+phosphate buffered saline (PBS), vehicle+compound 48/80 (0.75 mg/mL) and compound 48/80+Example 16 at various doses ranging from 0.01 mg/kg to 1.0 mg/kg.
C57BL mice were dosed orally with vehicle, or Example 16 at 0.01, 0.03, 0.1, 0.3, & 1.0 mg/kg. One hour later, blood samples were withdrawn via tail snip for measurement of drug levels, and mice were then terminally anesthetized with 2% isoflurane and given an intraperitoneal injection of 0.2 mL PBS or compound 48/80 solution (0.75 mg/mL, Sigma), followed by gentle massage of the abdomen. […]
Samples were thawed at room temperature and vortex-mixed. […] The plate was vortex-mixed for 30 seconds at 1000 rpm and analyzed by LC/MS/MS.
The analytical system consisted of a CTC HTS PAL autoinjector (Leap, Carrboro, N.C.), an Agilent 1290 Infinity binary pump and thermostated column compartment (Agilent Technologies, Santa Clara, Calif.) and an AB Sciex QTRAP 5500 mass spectrometer (AB Sciex, Framingham, Mass.). […] The analytes were detected by multiple reaction monitoring (MRM) in negative mode using Turbolon spray with the transitions of m/z 351/271 amu for PGD2/PGE2 and m/z 360/280 amu for PGD2-d9/PGE2-d9. Data were acquired, analyzed and quantified using Analyst software version 1.6.2 (AB Sciex, Framingham, Mass.). […]

male C57Bl/6N mice = test: In vivo functional response to muscle injury (eccentric contraction-induced); parameters: species or system mouse
Method: FIG. 1. Effect of different doses of an H-PGDS inhibitor, Example 16, on limb force following eccentric (lengthening) contraction-induced muscle injury in normal C57Bl6/N mice. Doses were administered 10 minutes prior to damage and QD thereafter.
In Vivo Assays for Functional Response to Muscle Injury
Under anesthesia, the right hind limb of a mouse is restrained at the knee and the foot attached to a motorized footplate/force transducer. Needle electrodes are inserted into the upper limb, either side of the sciatic nerve and a current sufficient to elicit a maximal muscle contraction is applied. Muscle tension is produced by moving the footplate to lengthen the plantarflexor muscles while the limb is under maximal stimulation. This is repeated 60 times to fatigue the muscles of the lower limb. Anesthesia, limb immobilization and limb stimulation are then repeated at regular intervals to measure maximal isometric force in the recovering limb. 7 to 9 animals are tested for each test condition.

## CC1(C)C[C@H](NC(=O)c2cnc(-c3cc(F)cc(Cl)c3)s2)C(=O)N1 (single isomer, unassigned) [Example 16]
[1]
  PGD2 generation in peritoneal lavage fluid following compound 48/80 challenge (FIG. 2): prevents 48/80-induced PGD2 generation; also recorded: Dose-Dependent Reduction in Peritoneal Lavage Fluid PGD2
Male C57Bl/6N mice; male C57Bl/6N mice, PO immediately prior to eccentric contraction challenge
  protection from strength loss (maximal isometric torque) 24 hours after injury: dose-dependent protection from strength loss
Male C57Bl/6N mice; male C57Bl/6N mice, repeat dosing (QD) PO, all doses greater than 0.1 mg/kg
  restoration of muscle function after 9 days: full restoration of muscle function
Male C57Bl/6N mice; normal C57Bl6/N mice, doses 10 minutes prior to damage and QD thereafter
  limb force / functional repair following eccentric contraction-induced limb muscle injury (FIG. 1): Accelerates Functional Repair
